Reference: patent US20230407243A1, “GENETIC PLATFORM TO INVESTIGATE THE FUNCTIONS OF BACTERIAL DRUG EFFLUX PUMPS” (priority 2022, published 2023)
Like-named read-outs stand apart in the source and are kept apart here.

Legend:
Format in all cases: cell-based, Escherichia coli
[1] = tested on: EKO-35 strains producing different efflux pumps (EKO-35 araC::X); assay: Checkerboard synergy (FICI) of PAβN or NMP with antibiotics; settings: for MICb Alone: antibiotic alone
Method: (§1) Synergy measurement using checkerboard analysis was performed in 96-well microtiter plates using the microdilution broth method, according to CLSI guidelines (Patel J. B., 2015). The cell inocula were prepared using the colony resuspension method. The minimum inhibitory concentrations (MICs) were defined as the lowest concentration that provided no growth, as determined by measurement of the OD600nm using a Synergy H1 microplate reader (BioTek). Susceptibility testing was performed in MHB II with a final volume of 100 μL. PAI3N (Bachem Americas) was solubilized in MHB II. […] Solvent controls were included in each plate.
(§2) The Fractional Inhibitory Concentration Index (FICI) was used to assess the synergy of PAI3N in combination with different antibiotics. The FICI represents the ΣFIC of each drug. The FICI for each drug was calculated using the following formula: FICI=FICA+FICB=(CA/MICA)+(CB/MICB). Where MICA and MICB are the MICs of drugs A (PAI3N/NMP) and B (antibiotic) alone, and CA and CB are the MICs of the drugs in combination. The effects of PAβN or NMP in combination with antibiotics were classified as: synergistic (FICI<0.5), additive (FICI>0.5-1.0), indifferent (FICI>1.0-2.0), and antagonistic (FICI>2.0). Fold increases in resistance provided by efflux pumps were calculated by dividing the MIC values of strains expressing efflux pumps by the MIC value of EKO-35.

ΔtolC = tested on: ΔtolC
Method: as §1, §2

EKO-35 = tested on: EKO-35
Method: as §1, §2

wild-type E. coli K-12 = tested on: wild-type E. coli K-12
Method: as §1, §2

ΔtolC-Pore = tested on: ΔtolC-Pore
Method: as §1, §2

EKO-35 acrBD408A = tested on: EKO-35 acrBD408A
Method: as §1, §2

[2] = tested on: EKO-35 porinated strain expressing acrF (AcrEF); assay: Checkerboard synergy (FICI), porinated strain
Outline: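 Checkerboard broth microdilution in MHB II followed CLSI guidelines, with MIC defined as the lowest concentration giving no growth by OD600. FICI was calculated as CA/MICA + CB/MICB for PAβN or NMP combined with an antibiotic, with <0.5 classed as synergistic. Efflux-attributed fold resistance is the strain MIC divided by the EKO-35 MIC.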

[3] = strain EKO-35 acrB, NMP + antibiotic
[4] = strain EKO-35 acrB, antibiotic in combination with NMP
[5] = strain ΔtolC, antibiotic in combination with NMP
[6] = strain EKO-35, NMP + antibiotic
[7] = strain EKO-35, antibiotic alone
[8] = strain EKO-35, antibiotic in combination with NMP
[9] = strain K-12, antibiotic in combination with NMP
[10] = strain ΔtolC Pore, NMP + antibiotic
[11] = strain ΔtolC Pore, antibiotic alone
[12] = strain ΔtolC Pore, antibiotic in combination with NMP
[13] = EKO-35 acrBD408A, NMP + antibiotic
[14] = EKO-35 acrBD408A, PAβN + antibiotic
[15] = strain EKO-35 acrBD408A, NMP + antibiotic
[16] = strain EKO-35 acrBD408A, antibiotic alone
[17] = strain EKO-35 acrEF, NMP + antibiotic
[18] = strain EKO-35 acrEF Pore, NMP + antibiotic

## CC(=O)NC[C@H]1CN(c2ccc(N3CCOCC3)c(F)c2)C(=O)O1 [linezolid]
[1]; EKO-35 acrB, NMP + antibiotic
  Effect: Synergistic
  FICI: 0.281
[1]; EKO-35 acrB, PAβN + antibiotic
  Effect: Synergistic
[1]; EKO-35 acrB, antibiotic in combination with PAβN
  MICb Combined: 16 µg/mL
[1]; [3]
  Effect: Synergistic (Synergy (FICI ≤0.5))
  FICI: 0.281
[1]; [4]
  MICb Combined: 8 µg/mL
ΔtolC; strain ΔtolC, NMP + antibiotic
  Effect: — (indifferent (FICI >1.0))
  FICI: 2.000
ΔtolC; strain ΔtolC, antibiotic alone
  MICb Alone: 8 µg/mL
ΔtolC; [5]
  MICb Combined: 8 µg/mL
ΔtolC; ΔtolC, NMP + antibiotic
  FICI: 2.000
ΔtolC; ΔtolC, PAβN + antibiotic
  Effect: Additive
  FICI: 0.750
ΔtolC; ΔtolC, antibiotic alone (PAβN checkerboard)
  MICb Alone: 8 µg/mL
ΔtolC; ΔtolC, antibiotic in combination with PAβN
  MICb Combined: 2 µg/mL
EKO-35; EKO-35, NMP + antibiotic
  Effect: Additive
  FICI: 0.531
EKO-35; EKO-35, PAβN + antibiotic
  Effect: Additive
  FICI: 0.750
EKO-35; EKO-35, antibiotic alone (PAβN checkerboard)
  MICb Alone: 16 µg/mL
EKO-35; EKO-35, antibiotic in combination with PAβN
  MICb Combined: 4 µg/mL
EKO-35; efflux-deficient strains EKO-35, EKO-35 acrBD408A, ΔtolC
  interaction of PAβN in combination with the labelled antibiotic (FICI): not synergistic
EKO-35; [6]
  Effect: Additive (additive (FICI >0.5-1.0))
  FICI: 0.531
EKO-35; [7]
  MICb Alone: 16 µg/mL
EKO-35; [8]
  MICb Combined: 8 µg/mL
wild-type E. coli K-12; K-12, NMP + antibiotic
  Effect: Synergistic
  FICI: 0.375
wild-type E. coli K-12; K-12, PAβN + antibiotic
  Effect: Synergistic
  FICI: 0.125
wild-type E. coli K-12; K-12, antibiotic alone (PAβN checkerboard)
  MICb Alone: 256 µg/mL
wild-type E. coli K-12; K-12, antibiotic in combination with PAβN
  MICb Combined: 16 µg/mL
wild-type E. coli K-12; strain K-12, NMP + antibiotic
  Effect: Synergistic (Synergy (FICI ≤0.5))
  FICI: 0.375
wild-type E. coli K-12; strain K-12, antibiotic alone
  MICb Alone: 256 µg/mL
wild-type E. coli K-12; [9]
  MICb Combined: 32 µg/mL
ΔtolC-Pore; [10]
  Effect: — (indifferent (FICI >1.0))
  FICI: 1.000
ΔtolC-Pore; [11]
  MICb Alone: 8 µg/mL
ΔtolC-Pore; [12]
  MICb Combined: 4 µg/mL
ΔtolC-Pore; ΔtolC Pore, NMP + antibiotic
  FICI: 1.000
ΔtolC-Pore; ΔtolC Pore, PAβN + antibiotic
  Effect: Additive
  FICI: 0.563
ΔtolC-Pore; ΔtolC Pore, antibiotic alone (PAβN checkerboard)
  MICb Alone: 8 µg/mL
ΔtolC-Pore; ΔtolC Pore, antibiotic in combination with PAβN
  MICb Combined: 0.5 µg/mL
EKO-35 acrBD408A; [13]
  Effect: Additive
  FICI: 0.516
EKO-35 acrBD408A; [14]
  Effect: Additive
  FICI: 0.750
EKO-35 acrBD408A; EKO-35 acrBD408A, antibiotic alone (PAβN checkerboard)
  MICb Alone: 16 µg/mL
EKO-35 acrBD408A; EKO-35 acrBD408A, antibiotic in combination with PAβN
  MICb Combined: 4 µg/mL
EKO-35 acrBD408A; [15]
  Effect: Additive (additive (FICI >0.5-1.0))
  FICI: 0.516
EKO-35 acrBD408A; [16]
  MICb Alone: 16 µg/mL
EKO-35 acrBD408A; strain EKO-35 acrBD408A, antibiotic in combination with NMP
  MICb Combined: 8 µg/mL

## CC[n+]1c(-c2ccccc2)c2cc(N)ccc2c2ccc(N)cc21 [ethidium bromide]
[1]; EKO-35 acrB, NMP + antibiotic
  FICI: 0.253
[1]; EKO-35 acrEF, NMP + antibiotic
  FICI: 0.500
[1]; [3]
  Effect: Synergistic (Synergy (FICI ≤0.5))
  FICI: 0.253
[1]; strain EKO-35 acrB
  MICb Alone: 15.6 µg/mL
[1]; [4]
  MICb Combined: 2 µg/mL
[1]; [17]
  Effect: Synergistic (Synergy (FICI ≤0.5))
  FICI: 0.500
[1]; strain EKO-35 acrEF
  MICb Alone: 2 µg/mL
[1]; strain EKO-35 acrEF, antibiotic in combination with NMP
  MICb Combined: 0.5 µg/mL
ΔtolC; strain ΔtolC, NMP + antibiotic
  Effect: Synergistic (Synergy (FICI ≤0.5))
  FICI: 0.281
ΔtolC; strain ΔtolC, antibiotic alone
  MICb Alone: 7.81 µg/mL
ΔtolC; [5]
  MICb Combined: 1.95 µg/mL
ΔtolC; ΔtolC, NMP + antibiotic
  FICI: 0.281
EKO-35; EKO-35, NMP + antibiotic
  FICI: 2.000
EKO-35; [6]
  Effect: — (indifferent (FICI >1.0))
  FICI: 2.000
EKO-35; [7]
  MICb Alone: 0.244 µg/mL
EKO-35; [8]
  MICb Combined: 0.244 µg/mL
wild-type E. coli K-12; K-12, NMP + antibiotic
  FICI: 0.375
wild-type E. coli K-12; strain K-12, NMP + antibiotic
  Effect: Synergistic (Synergy (FICI ≤0.5))
  FICI: 0.375
wild-type E. coli K-12; strain K-12, antibiotic alone
  MICb Alone: 500 µg/mL
wild-type E. coli K-12; [9]
  MICb Combined: 125 µg/mL
ΔtolC-Pore; [10]
  Effect: Additive (additive (FICI >0.5-1.0))
  FICI: 0.500
ΔtolC-Pore; [11]
  MICb Alone: 1.95 µg/mL
ΔtolC-Pore; [12]
  MICb Combined: 0.488 µg/mL
ΔtolC-Pore; ΔtolC Pore, NMP + antibiotic
  FICI: 0.500
EKO-35 acrBD408A; [13]
  FICI: 0.750
EKO-35 acrBD408A; [15]
  Effect: Additive (additive (FICI >0.5-1.0))
  FICI: 0.750
EKO-35 acrBD408A; [16]
  MICb Alone: 0.488 µg/mL
[2]; EKO-35 acrEF Pore, NMP + antibiotic
  FICI: 0.500
[2]; [18]
  Effect: Synergistic (Synergy (FICI ≤0.5))
  FICI: 0.500
[2]; strain EKO-35 acrEF Pore, antibiotic alone
  MICb Alone: 2 µg/mL
[2]; strain EKO-35 acrEF Pore, antibiotic in combination with NMP
  MICb Combined: 0.5 µg/mL
